Experiment [1] deals with JAK1 (recombinant purified GST-tagged catalytic domain) (Homo sapiens (Human), UniProt P23458). Kind of experiment: biochemical.
Experiment [2] concerns the target JAK2 (recombinant purified GST-tagged catalytic domain) (Homo sapiens (Human), UniProt O60674). Kind of experiment: biochemical.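 Further: biochemical JAK kinase assay with HTRF detection.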

Each structure is given as a SMILES string.

Sequence of JAK1 (recombinant purified GST-tagged catalytic domain) (P23458 875-1153): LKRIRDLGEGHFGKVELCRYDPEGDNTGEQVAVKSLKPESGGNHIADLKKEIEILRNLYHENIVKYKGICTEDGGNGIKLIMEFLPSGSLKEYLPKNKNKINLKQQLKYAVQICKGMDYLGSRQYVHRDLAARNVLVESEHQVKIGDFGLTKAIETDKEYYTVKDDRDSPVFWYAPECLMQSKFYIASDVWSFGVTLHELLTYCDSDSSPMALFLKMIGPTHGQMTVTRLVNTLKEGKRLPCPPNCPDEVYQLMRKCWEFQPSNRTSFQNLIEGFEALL
Sequence of JAK2 (recombinant purified GST-tagged catalytic domain) (O60674 849-1124): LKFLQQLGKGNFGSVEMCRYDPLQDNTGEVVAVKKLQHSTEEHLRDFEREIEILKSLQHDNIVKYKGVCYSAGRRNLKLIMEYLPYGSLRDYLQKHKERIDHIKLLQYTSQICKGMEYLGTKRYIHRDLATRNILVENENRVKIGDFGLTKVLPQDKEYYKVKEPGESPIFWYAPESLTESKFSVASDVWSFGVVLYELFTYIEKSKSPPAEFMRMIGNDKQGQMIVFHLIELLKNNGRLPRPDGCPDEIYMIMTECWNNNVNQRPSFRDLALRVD

With `N#C[C@H]1C[C@H](O)CC[C@@H]1n1cc(C(N)=O)c(Nc2ccc(C(F)(F)F)nc2)n1` (single isomer, unassigned) [Example 25-10, 1-[(1S,2S,4R or 1R,2R,4S)-2-cyano-4-hydroxycyclohexyl]-3-{[6-(trifluoromethyl)pyridin-3-yl]amino}-1H-pyrazole-4-carboxamide], the results for the IC50 in experiment [1] and in experiment [2] were 4 nM and 17 nM, respectively.

Take `N#C[C@H]1C[C@H](O)CC[C@@H]1n1cc(C(N)=O)c(Nc2ccc([C@H](O)C(F)(F)F)cc2)n1` (single isomer, unassigned) [Example 25-13, 1-[(1S,2S,4R or 1R,2R,4S)-2-cyano-4-hydroxycyclohexyl]-3-({4-[(1S or 1R)-2,2,2-trifluoro-1-hydroxyethyl]phenyl}amino)-1H-pyrazole-4-carboxamide]: the results for the IC50 in experiment [1] and in experiment [2] were 0.25 nM and 3 nM, respectively.

Consider `N#C[C@H]1C[C@H](O)CC[C@@H]1n1cc(C(N)=O)c(Nc2ccc([C@@H](O)C(F)(F)F)cc2)n1` (single isomer, unassigned) [Example 25-15, 1-[(1S,2S,4R or 1R,2R,4S)-2-cyano-4-hydroxycyclohexyl]-3-({4-[(1R or 1S)-2,2,2-trifluoro-1-hydroxyethyl]phenyl}amino)-1H-pyrazole-4-carboxamide], for which the half-maximal inhibitory concentration (IC50) worked out at 0.3 nM in experiment [1] and 3 nM in experiment [2].

`N#C[C@H]1C[C@H](O)CC[C@@H]1n1cc(C(N)=O)c(Nc2ccc(C(F)F)nc2)n1` (single isomer, unassigned) [Example 25-16, 1-[(1S,2S,4R or 1R,2R,4S)-2-cyano-4-hydroxycyclohexyl]-3-{[6-(difluoromethyl)pyridin-3-yl]amino}-1H-pyrazole-4-carboxamide]: the concentration for half-maximal inhibition (IC50) in experiment [1] stood at 3 nM; in experiment [2], 10 nM.

On to `CS(=O)(=O)c1ccc(Nc2nn([C@H]3CC[C@@H](O)C[C@@H]3C#N)cc2C(N)=O)cc1` (single isomer, unassigned) [Example 25-28, 1-[(1S,2S,4R or 1R,2R,4S)-2-cyano-4-hydroxycyclohexyl]-3-{[4-(methylsulfonyl)phenyl]amino}-1H-pyrazole-4-carboxamide], for which the IC50 in experiment [1] came to 0.1 nM; in experiment [2] it was 3 nM.

`N#C[C@H]1C[C@H](O)CC[C@@H]1n1cc(C(N)=O)c(Nc2ccccc2)n1` (single isomer, unassigned) [Example 25-29, 1-[(1S,2S,4R or 1R,2R,4S)-2-cyano-4-hydroxycyclohexyl]-3-(phenylamino)-1H-pyrazole-4-carboxamide]: the results for the concentration for half-maximal inhibition (IC50) in experiment [1] and in experiment [2] were 2 nM and 26 nM, respectively.

Take `N#C[C@H]1C[C@H](OCC2CC2)CC[C@@H]1n1cc(C(N)=O)c(Nc2ccnc(F)c2)n1` (single isomer, unassigned) [Example 26-1, 1-[(1S,2S,4R or 1R,2R,4S)-2-cyano-4-(cyclopropylmethoxy)cyclohexyl]-3-[(2-fluoropyridin-4-yl)amino]-1H-pyrazole-4-carboxamide]: the IC50 in experiment [1] came to 2 nM; in experiment [2], 9 nM.

For the molecule `N#C[C@@H]1C[C@H](OCC2CC2)CC[C@H]1n1cc(C(N)=O)c(Nc2ccnc(F)c2)n1` (single isomer, unassigned) [Example 26-2, 1-[(1R,2R,4R or 1S,2S,4S)-2-cyano-4-(cyclopropylmethoxy)cyclohexyl]-3-[(2-fluoropyridin-4-yl)amino]-1H-pyrazole-4-carboxamide], the results for the IC50 in experiment [1] and in experiment [2] were 6 nM and 76 nM, respectively.

With `N#C[C@H]1C[C@H](OCC2CC2)CC[C@H]1n1cc(C(N)=O)c(Nc2ccnc(F)c2)n1` (single isomer, unassigned) [Example 26-3, 1-[(1R,2S,4R or 1S,2R,4S)-2-cyano-4-(cyclopropylmethoxy)cyclohexyl]-3-[(2-fluoropyridin-4-yl)amino]-1H-pyrazole-4-carboxamide], the figures for the concentration for half-maximal inhibition (IC50) in experiment [1] and in experiment [2] were 69 nM and 150 nM, respectively.

As for `N#C[C@@H]1C[C@H](OCC2CC2)CC[C@@H]1n1cc(C(N)=O)c(Nc2ccnc(F)c2)n1` (single isomer, unassigned) [Example 26-4, 1-[(1S,2R,4R or 1R,2S,4S)-2-cyano-4-(cyclopropylmethoxy)cyclohexyl]-3-[(2-fluoropyridin-4-yl)amino]-1H-pyrazole-4-carboxamide], the half-maximal inhibitory concentration (IC50) came to 21 nM in experiment [1] and 74 nM in experiment [2].

Regarding `N#C[C@H]1C[C@@H](N2CCC2)CC[C@@H]1n1cc(C(N)=O)c(Nc2ccc(C(F)(F)F)cc2)n1` (single isomer, unassigned) [Example 28-1, 1-((1S,2S,4S or 1R,2R,4R)-4-(azetidin-1-yl)-2-cyanocyclohexyl)-3-((4-(trifluoromethyl)phenyl)amino)-1H-pyrazole-4-carboxamide], the concentration for half-maximal inhibition (IC50) in experiment [1] amounted to 0.4 nM; in experiment [2], 23 nM.

As for `N#C[C@H]1C[C@@H](N2CCC2)CC[C@@H]1n1cc(C(N)=O)c(Nc2ccccc2)n1` (single isomer, unassigned) [Example 28-4, 1-((1R,2R,4R or 1S,2S,4S)-4-(Azetidin-1-yl)-2-cyanocyclohexyl)-3-(phenylamino)-1H-pyrazole-4-carboxamide], the IC50 amounted to 0.75 nM in experiment [1] and 39 nM in experiment [2].

Take `CC(C)(O)C1CN([C@@H]2CC[C@H](n3cc(C(N)=O)c(Nc4ccc(C(F)(F)F)cc4)n3)[C@@H](C#N)C2)C1` (single isomer, unassigned) [Example 28-7, 1-{(1S,2S,4R or 1R,2R,4S)-2-cyano-4-[3-(1-hydroxy-1-methylethyl)azetidin-1-yl]cyclohexyl}-3-{[4-(trifluoro-methyl)phenyl]amino}-1H-pyrazole-4-carboxamide]: the IC50 worked out at 0.4 nM in experiment [1] and 49 nM in experiment [2].

In the case of `N#C[C@H]1C[C@@H](NCC2CC2)CC[C@@H]1n1cc(C(N)=O)c(Nc2ccc(C(F)(F)F)cc2)n1` (single isomer, unassigned) [Example 28-10, 1-{(1S,2S,4S or 1R,2R,4R)-2-cyano-4-[(cyclopropyl-methyl)amino]cyclohexyl}-3-{[4-(trifluoromethyl)phenyl]amino}-1H-pyrazole-4-carboxamide], the results for the 50% inhibitory concentration (IC50) in experiment [1] and in experiment [2] were 3 nM and 64 nM, respectively.

With `N#C[C@H]1C[C@H](N2C[C@@H]3[C@@H](CO)[C@@H]3C2)CC[C@@H]1n1cc(C(N)=O)c(Nc2ccc(C(F)(F)F)cc2)n1` (single isomer, unassigned) [Example 28-15, 1-{(1S,2S,4R or 1R,2R,4S)-2-cyano-4-[(1R,5S,6R or 1S,5R,6S)-6-(hydroxymethyl)-3-azabicyclo[3.1.0]hex-3-yl]cyclohexyl}-3-{[4-(trifluoromethyl)phenyl]amino}-1H-pyrazole-4-carboxamide], the values for the IC50 in experiment [1] and in experiment [2] were 0.9 nM and 22 nM, respectively.

Take `N#C[C@H]1C[C@@H](NCC2(O)CC2)CC[C@@H]1n1cc(C(N)=O)c(Nc2ccc(C(F)(F)F)cc2)n1` (single isomer, unassigned) [Example 28-23, 1-[(1S,2S,4S or 1R,2R,4R)-2-cyano-4-{[(1-hydroxycyclo-propyl)methyl]amino}cyclo-hexyl]-3-{[4-(trifluoromethyl)phenyl]amino}-1H-pyrazole-4-carboxamide]: the IC50 is 0.45 nM in experiment [1] and 23 nM in experiment [2].

Take `CC(C)(O)C1CN([C@H]2CC[C@H](n3cc(C(N)=O)c(Nc4ccc(C(F)(F)F)cc4)n3)[C@@H](C#N)C2)C1` (single isomer, unassigned) [Example 28-28, 1-{(1S,2S,4S or 1R,2R,4R)-2-cyano-4-[3-(1-hydroxy-1-methylethyl)azetidin-1-yl]cyclohexyl}-3-{[4-(trifluoromethyl)phenyl]amino}-1H-pyrazole-4-carboxamide]: the half-inhibitory concentration (IC50) was determined as 3 nM in experiment [1] and 77 nM in experiment [2].

Regarding `N#C[C@H]1C[C@@H](N2C[C@@H]3[C@@H](CO)[C@@H]3C2)CC[C@@H]1n1cc(C(N)=O)c(Nc2ccc(C(F)(F)F)cc2)n1` (single isomer, unassigned) [Example 28-34, 1-{(1S,2S,4S or 1R,2R,4R)-2-cyano-4-[(1R,5S,6S or 1S,5R,6R)-6-(hydroxymethyl)-3-azabicyclo[3.1.0]hex-3-yl]cyclohexyl}-3-{[4-(trifluoromethyl)phenyl]amino}-1H-pyrazole-4-carboxamide], the values for the IC50 in experiment [1] and in experiment [2] were 0.6 nM and 20 nM, respectively.

For `N#C[C@H]1C[C@H](NCC2(O)CC2)CC[C@@H]1n1cc(C(N)=O)c(Nc2ccc(C(F)(F)F)cc2)n1` (single isomer, unassigned) [Example 28-35, 1-[(1S,2S,4R or 1R,2R,4S)-2-cyano-4-{[(1-hydroxycyclo-propyl)methyl]amino}cyclo-hexyl]-3-{[4-(trifluoro-methyl)phenyl]amino}-1H-pyrazole-4-carboxamide], the 50% inhibitory concentration (IC50) in experiment [1] stood at 1 nM; in experiment [2], 48 nM.

In the case of `CN(C)[C@@H]1CC[C@H](n2cc(C(N)=O)c(Nc3ccc(Cl)c(F)c3)n2)[C@@H](C#N)C1` (single isomer, unassigned) [Example 28-38, 3-[(4-chloro-3-fluorophenyl)amino]-1-[(1S,2S,4R or 1R,2R,4S)-2-cyano-4-(dimethylamino)cyclohexyl]-1H-pyrazole-4-carboxamide], the IC50 in experiment [1] stood at 7 nM; in experiment [2] it was 173 nM.

As for `CN[C@H]1CC[C@H](n2cc(C(N)=O)c(Nc3ccc(Cl)cc3)n2)[C@@H](C#N)C1` (single isomer, unassigned) [Example 28-40, 3-[(4-chlorophenyl)amino]-1-[(1S,2S,4S or 1R,2R,4R)-2-cyano-4-(methylamino)cyclohexyl]-1H-pyrazole-4-carboxamide], the IC50 was 0.7 nM in experiment [1] and 16 nM in experiment [2].

Regarding `CN(C)[C@H]1CC[C@H](n2cc(C(N)=O)c(Nc3ccc(Cl)c(F)c3)n2)[C@@H](C#N)C1` (single isomer, unassigned) [Example 28-41, 3-[(4-chloro-3-fluorophenyl)amino]-1-[(1S,2S,4S or 1R,2R,4R)-2-cyano-4-(dimethylamino)cyclohexyl]-1H-pyrazole-4-carboxamide], the IC50 in experiment [1] stood at 2 nM; in experiment [2], 58 nM.
